Results taken from US8318772B2, “Amine compounds and medical uses thereof” (Institute of Pharmacology and Toxicology Academy of …, priority 2008, dated 2012).

Legend:
[1] = test system: tail suspended mice; experiment: Tail suspension test in mice; type: in vivo, Male ICR mice; conditions: 30 min before test, last 4 min of 6 min
Text: Male ICR mice (SPF grade) weighing 18-22 g each was suspended by […] separately at 1 cm from the end of the tail with a clamp attached to a rope at the center of top plate of a 25×25×25 cm tail suspension box, and the head is away from the box bottom by 4-5 cm. […] The results of antidepressant effects of the target compounds administrated via intraperitoneal injection as determined by the tail suspension test in mice are given in Table 1. In the tail-suspended model of mice, the antidepressant effect was evaluated by observing the immobility time of the tail-suspended mice, and the shorter the immobility time, the stronger the antidepressant effect.

[2] = test system: forced swim mice; experiment: Forced swim test in mice; type: in vivo, ICR mice; conditions: for Immobility time: last 4 min of 6 min
Method: Mail ICR mice (SPF grade) weighing 18-22 g were placed in a glass jar (diameter 10 cm, and height 20 cm) with water 10 cm in depth and a temperature of 25° C., observed for 6 min, and the accumulated immobility time of mice (i.e., the time that the animal has no motion or a slight motion in its hind limbs, but maintains body floated without motion) during the last 4 min was recorded. The mice were administrated with the compound to be tested and Duloxetine as the positive control drug via intraperitoneal injection at 30 min before the test or via intragastric administration at 60 min before the test.
In the forced swim model of mice, the antidepressant effect was evaluated to by observing the immobility time of the forced swim mice, and the shorter the immobility time, the stronger the antidepressant effect.

[3] = test system: tail suspended mice; experiment: Tail suspension test in mice; type: in vivo, Male ICR mice; conditions: for Immobility time: last 4 min of 6 min
[4] = 2.5 mg/kg i.p., 30 min before test
[5] = 5 mg/kg i.p., 30 min before test
[6] = 10 mg/kg i.p., 30 min before test
[7] = 20 mg/kg i.p., 30 min before test
[8] = 5 mg/kg i.g., 60 min before test
[9] = 10 mg/kg i.g., 60 min before test
[10] = 20 mg/kg i.g., 60 min before test

Row | SMILES | melting point [°C] | Immobility time ([1]; 2.5 mg/kg i.p.) [s] | Immobility time ([1]; 5 mg/kg i.p.) [s] | Immobility time ([1]; 10 mg/kg i.p.) [s] | Immobility time ([1]; 20 mg/kg i.p.) [s] | Immobility time [2, 4] [s] | Immobility time [2, 5] [s] | Immobility time [2, 6] [s] | Immobility time [2, 7] [s] | further results
1 | CN(C)CCC(Oc1cccc2c1OCCO2)c1ccco1.O=C(O)C(=O)O (stereo not shown) | 101 to 103 |  |  |  |  |  |  |  |  | 
2 | O=C(O)C(=O)O.c1csc(C(CCN2CCCC2)Oc2cccc3c2OCO3)c1 (stereo not shown) | 105 to 108 |  |  |  |  |  |  |  |  | 
3 | O=C(O)C(=O)O.c1csc(C(CCN2CCCCC2)Oc2cccc3c2OCO3)c1 (stereo not shown) | 118 to 120 |  |  |  |  |  |  |  |  | 
4 | CN(C)CCC(Oc1cccc2c1OCCO2)c1cccs1.O=C(O)C(=O)O (stereo not shown) | 89 to 92 |  |  |  |  |  |  |  |  | 
5 | CNCCC(Oc1cccc2c1OCCO2)c1cccs1.O=C(O)C(=O)O (stereo not shown) | 128 to 131 |  |  |  |  |  |  |  |  | 
6 | CN(C)CCC(Oc1cccc2c1OCO2)c1cccs1.O=C(O)C(=O)O (stereo not shown) [Compound I1, N,N-dimethyl-3-[(benzo[1,3]dioxolan-4-yl)-oxy]-3-(thiophen-2-yl)-propylamine.oxalate] | 85 to 88 | 38.2 ± 32.5 | 20.2 ± 17.1 | 6.2 ± 7.4 | 2.0 ± 6.3 | 148.7 ± 40.3 | 86.7 ± 44.7 | 54.6 ± 44.0 | 18.6 ± 15.7 | 
7 | CNCCC(Oc1cccc2c1OCO2)c1cccs1.O=C(O)C(=O)O (stereo not shown) [Compound I2] | 120 to 123 | 35.0 ± 30.0 | 20.8 ± 32.1 | 1.9 ± 4.0 | 2.5 ± 4.1 | 113.6 ± 47.4 | 119.4 ± 47.0 | 86.1 ± 36.5 | 43.1 ± 37.1 | Immobility time [2, 8]: 104.1 ± 39.7 s; Immobility time [2, 9]: 83.7 ± 34.2 s; Immobility time [2, 10]: 60.1 ± 33.8 s; antidepressant effect compared with Duloxetine (in words) ([2]; i.g., I2 20 mg/kg vs Duloxetine 40 mg/kg): comparable to that of Duloxetine at the dose of 40 mg/kg; effect on immobility time (in words) ([2]; intragastric administration, Table 4): significantly shorten the immobility time; Immobility time [3, 8]: 66.1 ± 44.9 s; Immobility time [3, 9]: 51.8 ± 36.0 s; Immobility time [3, 10]: 22.0 ± 16.9 s; effect compared with duloxetine (in words) ([3]; i.g., I2 5 mg/kg vs duloxetine 10 mg/kg): remarkably greater than that of duloxetine at the dose of 10 mg/kg; effect on immobility time (in words) ([3]; intragastric administration, Table 2): significantly shorten the immobility time
8 | CN(C)CCC(Oc1cccc2c1OCO2)c1ccco1.O=C(O)C(=O)O (stereo not shown) [Compound I6, N,N-dimethyl-[3-(benzo[1,3]dioxolan-4-yl-oxy)-3-(furan-2-yl)]-propylamine.oxalate] | 97 to 101 | 51.2 ± 34.3 | 53.9 ± 46.9 | 22.5 ± 28.1 | 11.9 ± 16.8 | 92.4 ± 39.2 | 96.5 ± 43.3 | 108.2 ± 46.7 | 61.2 ± 44.5 | 
9 | CNCCC(Oc1cccc2c1OCO2)c1ccco1.O=C(O)C(=O)O (stereo not shown) [Compound I7, N-methyl-[3-(benzo[1,3]dioxolan-4-yl-oxy)-3-(furan-2-yl)]propylamine.oxalate] | 130 to 133 | 30.7 ± 44.1 | 21.9 ± 21.5 | 33.3 ± 31.2 | 0.3 ± 0.95 | 94.3 ± 55.3 | 78.9 ± 43.1 | 70.9 ± 33.0 | 28.4 ± 35.8 | 
10 | CNCC[C@H](Oc1cccc2ccccc12)c1cccs1 [Duloxetine, reference compound] |  |  |  |  |  |  |  |  | 96.7 to 135.4 | Immobility time ([2]; 40 mg/kg i.g., 60 min before test): 60.5 ± 44.1 s; Immobility time [3, 9]: 81.0 ± 44.7 s; Immobility time [3, 6]: 35.9 to 49.2 s
